The values that follow come from paper PMC6474902, “Examination of novel 4-aminoquinoline derivatives designed and synthesized by a hybrid pharmacophore approach to enhance their anticancer activities” (Scientific Reports, 2019).

Holding throughout (format): cell-based, human
For one test, the system named is MDA-MB231. The test is described as follows: SRB antiproliferative/antigrowth assay. Conditions: Homo sapiens, MDA-MB-231, 48 h, read-out: GI50 MB231. Put shortly: (§1)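 Cells seeded 24 h before exposure to seven concentrations (100 µM to 0.0064 µM) for 48 h at 37 °C. Growth by TCA fixation and SRB staining, absorbance 515–564 nm, relative to time-zero and untreated controls; GI50 from variable-slope sigmoidal fit, reported as greater/less than range limits when not reached.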

The next test concerns MCF7. The test is described as follows: SRB antiproliferative/antigrowth assay. Put shortly: as §1
In the next test the test system is MDA-MB468. Briefly: SRB antiproliferative/antigrowth assay. As to conditions: Homo sapiens, MDA-MB-468, 48 h, read-out: GI50 MB468. Put shortly: as §1
The test system of test [1] is MCF10A. Briefly: LysoTracker Red staining of lysosomal volume, non-cancer cells. Conditions: 5 μM, 48 h. On the procedure:
Since the structure of compound 13 contains the main scaffold of CQ, we examined whether cells treated with compound 13 also results an increase in the lysosomal volume.
LysoTracker Red sDND-99 staining was carried out as recommended by the manufacturer (Molecular Probes, Eugene, OR). Briefly, cells grown on a cover slip were incubated in 50 nM LysoTracker Red DND-99 in serum-free RPMI-1640 medium for 30 min and then rinsed once with serum-free medium. The cells were washed three times with ice-cold medium, incubated in fresh medium for 45 min at 37 °C, and then washed once with fresh medium. Subsequently, the cells were examined by fluorescence microscopy using two filters (for green and red images) sequentially. Merging the two color images was done using Northern Eclipse software.
Sham treated Compound 13 (5 μ M), 48 h
(VR23) in non- cancer MCF10A, in contrast to cancer cells (MCF7, HeLa). […]

Test [2] deals with MDA-MB231, MDA-MB468, MCF7 breast cancer cells; 184B5 and MCF10A non-cancer breast cells. Briefly: SRB assay, panel of breast cancer and non-cancer breast cell lines. As to conditions: judged from GI50 values of Table 1. On the procedure: The antigrowth effects of 4-piperazinylquinoline sulfonyl analogs on human breast tumor cells was initially evaluated using MDA-MB468 (a PTEN defective, EGFR positive breast adenocarcioma), MDA-MB231 (p53 and pRB mutated, triple-negative breast carcinoma), and MCF7 (p53+/−, invasive ductal breast carcinoma) cell lines. In addition, the cytotoxicity of all the compounds was also evaluated with the 184B5 and MCF10A non-cancer immortalized breast epithelial cell lines, to determine if these newly synthesized compounds have differential cytotoxic effects on cancer and non-cancer cells. The panel of three breast cancer cell lines with different genetic back ground and the well-studied two non-cancer immortalized breast cell lines would provide insights into the efficacy and toxicity of the test compounds in the different genetic background and at different stages of tumor development. The dose response of each cell line was established by determining the number of viable cells after 48 h of continuous drug treatment against seven different concentrations (100 µM to 0.0064 µM) of each compound. The reading of sulphorodamine B (SRB) staining is known to accurately reflect the level of total cellular macromolecules/cell growth/proliferation[6],[23]. […] The data for CQ and cisplatin were included as references. […] The differences in the GI50 values may be attributable to such factors as the nature of the sulfonyl group and the halogen substitution on the 7th position of the 4-piperazinylquinoline ring system, and the genetic and biochemical background of the cell lines.
Antiproliferative/antigrowth effects were determined by a SRB-based protocol[6],[23]. For a typical screening experiment, 5,000–10,000 cells were inoculated into 100 µL medium per well of a 96-well microtiter plate as described previously. Briefly, after the inoculation, the microtiter plate was incubated at 37 °C, 5% CO2, 95% air and 100% relative humidity for 24 h, prior to addition of experimental drugs. Some of the sample wells were fixed with 25 µL of 50% tricholoroacetic acid (TCA) as a control of the cell population for each cell line at the time of drug addition (Tz). An aliquot of the frozen stock was thawed and diluted to a desired final maximum test-concentration with complete medium. Two to ten-fold serial dilutions were made to provide a total of seven drug concentrations (and a control [C]). Following addition of drugs, the culture plate was incubated for additional 48 h. Cells were fixed in situ by slowly adding 25 µL of ice-cold 50% (w/v) TCA (final concentration, 10% TCA), and were then incubated for 60 min at 4 °C. The supernatant was discarded, and the plate was washed five times with tap water, followed by air-dry. 50 µL of SRB solution at 0.4% (w/v) in 1% acetic acid was added to each well, and the plate was incubated for >30 min at room temperature. Unbound SRB was removed by five washes with tap water, followed by air-drying. The cells “stained” with SRB were solubilized with 10 mM trizma base, and the absorbance was read on an automated plate reader at a wavelength of 515–564 nm. The relative growth rate (%) was calculated for each of the compound concentrations according to the following formula: (Ti−Tz)/(C−Tz)×100
In the formula, time zero (Tz), control growth (C), and OD for different concentration of tested compounds (Ti). The GI50 for each compound was obtained from a non-linear Sigmoidal dose-response (variable slope) curve which is fitted by GraphPad Prism v.4.03 software. Values were calculated for each of these parameters if the level of activity was reached. However, if the effect was not reached or was exceeded, the value for that parameter was expressed as greater or less than the maximum or minimum concentration tested.
(The SRB assay estimates cell density from bound dye.)

Another test has as its system NCI-60 cancer panel. Briefly: NCI-60 cancer panel screening. Conditions: screening carried out by the USA National Cancer Institute. As to the method:
Therefore, we examined its effects on several cellular and molecular biological aspects to gain a better understanding about its mode of function. […]
compound 13 show s effective grow th inhibition on a w ide range of cancers. Screening of compound 13 with the NCI-60 cancer panel was carried out by the USA National Cancer Institute.
(1 picture or pasted object on this page, not shown here)

The subject of test [3] is MCF10A. The test is described as follows: SRB antiproliferative/antigrowth assay, non-cancer cells. Put shortly: as §1
For another test, the system named is 184B5. The test is described as above. Conditions: Homo sapiens, 184B5, 48 h, read-out: GI50 184B5. Put shortly:
as §1

Entries after “also recorded” stand apart in the source; their conditions may differ.

For orientation: GI50 means the concentration giving 50% growth inhibition. For `O=[N+]([O-])c1ccc(S(=O)(=O)N2CCN(c3ccnc4cc(Cl)ccc34)CC2)c([N+](=O)[O-])c1` [Compound 13, 7-Chloro-4-(4-(2,4-dinitrophenylsulfonyl)piperazin-1-yl)quinoline], the GI50 in the test on MDA-MB231 came to 3.4 ± 0.1 µM; in the test with MCF7 (Homo sapiens, MCF7, 48 h, read-out: GI50 MCF7), 2.3 ± 0.1 µM; in the test on MDA-MB468, 0.7 ± 0.1 µM; in the test with MCF10A [3] (Homo sapiens, MCF-10A, 48 h, read-out: GI50 MCF10A) it was 12.3 ± 0.1 µM; with 184B5 it was 9 ± 0.1 µM. For the same molecule, the “more effective than cisplatin (MCF7)” value in the test with MCF7 (ratio of GI50 values) stood at 11.1 fold. For the same molecule, the lysosomal volume result in the test on MCF10A [1] is “does not increase; also recorded: did not show the same degree of increase in lysosomal volume”. In test [2], the “preferential antigrowth effect on cancer versus non-cancer cells (in words)” value is “effective and preferential antigrowth effects on cancer cells; also recorded: stronger antigrowth/antiproliferation activity against cancer cells than non-cancer cells”. The “growth inhibition in NCI-60 cancer panel (in words)” value with NCI-60 cancer panel is “effective on many different human cancers”. In addition, the “higher concentration required for the same GI50 against non-cancer than cancer cells” value with MCF10A [3] (MDA-MB468 vs MCF10A) is recorded as “up to 17.6 fold”.
